Laboratory results reported in patent EP4722246A1, “TEM8-TARGETED ANTIBODY OR ANTIGEN-BINDING FRAGMENT THEREOF, AND USE THEREOF” (Inxmed (Nanjing) Co., Ltd., priority 2023, dated 2024).
Starred links: 1 amine or outer side, 2 acyl side, 3 side chain; linkers in the order of their positions; H or OH if unused. Non-standard residues stand in square brackets, D forms with d. Residues, ends and D or L forms follow the SMILES beside them. *: point of attachment. Dolaproine = CO[C@@H]([C@@H]1CCCN1)[C@@H](C)C(=O)O; Hexanoyl(6-maleimido) = O=C1C=CC(=O)N1CCCCCC(=O)*; Dil = CC[C@H](C)[C@H](NC)[C@@H](CC(=O)O)OC; PABC = O=C(OCc1ccc(N[*:1])cc1)[*:2]; X1 = C[C@@H](N*)[C@@H](O)c1ccccc1; Cit = NC(=O)NCCC[C@H](N)C(=O)O; NMeV = CN[C@H](C(=O)O)C(C)C

System: HCT116
Experiment: ADC in vitro cell killing assay (CCK-8)
Type: cell-based, human
Details: HCT116, 72 h
Experimental: HCT116 (Cat: CBP60028, Cobioer Biosciences Co., Ltd.) in the logarithmic growth phase was trypsinized, plated in a 96-well plate at 3000 cells/well in 100 µL, and the plate was incubated in a 37°C, 5% CO2 incubator for 24 h. ADC was subjected to a 5-fold serial dilution with cell culture medium (Ham's F-12K, 10% FBS, AusGenex, Cat:FBS500-S) starting from 30000nM, yielding 10 concentration gradients. 10 µL of the diluted sample was added to the cell plate for mixing well, and the plate was incubated in a 37°C, 5% CO2 incubator for 72 h. 10 µL of Cell Counting Kit-8 (CellorLab, CX001) was added to the plate, and the plate was incubated in a 37 °C, 5% CO2 constant temperature incubator for 3 h. The absorbance value at 450 nm was measured with a microplate reader. Data was analyzed with Graphpad, with the in vitro killing activity of TEM8 antibody-drug conjugate shown in Table 5 and the IC50 curve shown in FIG. 4. Table 5: In vitro killing activity of TEM8 antibody-drug conjugate or linker + payload or payload

CC[C@H](C)[C@@H]([C@@H](CC(=O)N1CCC[C@H]1[C@H](OC)[C@@H](C)C(=O)N[C@H](C)[C@@H](O)c1ccccc1)OC)N(C)C(=O)[C@@H](NC(=O)[C@@H](NC)C(C)C)C(C)C [MMAE] (H-[NMeV]V[Dil][Dolaproine]-X1)
IC50: 14.8 nM

CC[C@H](C)[C@@H]([C@@H](CC(=O)N1CCC[C@H]1[C@H](OC)[C@@H](C)C(=O)N[C@H](C)[C@@H](O)c1ccccc1)OC)N(C)C(=O)[C@@H](NC(=O)[C@H](C(C)C)N(C)C(=O)OCc1ccc(NC(=O)[C@H](CCCNC(N)=O)NC(=O)[C@@H](NC(=O)CCCCCN2C(=O)C=CC2=O)C(C)C)cc1)C(C)C [VcMMAE] ({Hexanoyl(6-maleimido)}-V[Cit][PABC][NMeV]V[Dil][Dolaproine]-X1)
IC50: 1280 nM
